Measured values published in patent publication US9023789B2, “Amylin analogs and pharmaceutical compositions thereof” (Novo Nordisk A/S, priority 2012, dated 2015).
In brackets after ≈: the same amount, converted by molar mass. Read-outs that look alike come from different tables or passages of the source. Numbered stars: 1 amine (or outer) side, 2 acyl side, 3 side chain; on linkers, the order of the positions; unused ones are H or OH. Bridge positions count the residues as written; N and C are the ends. Peptide text beside a SMILES is read from it. * marks the point of attachment. C20 diacid = O=C(O)CCCCCCCCCCCCCCCCCCC(=O)*; γGlu = O=C(O)[C@H](CCC(=O)[*:2])N[*:1]

Experiments:
[1] = biological target: T1, human amylin receptor (membranes from Amylin 3(a)/CRE-luc cells) (Homo sapiens, UniProt O60896+P30988); experiment: ASSAY (V) binding to the human amylin receptor (SPA, 125I-rat amylin);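 further: competition binding of cell membranes (35 ng/µL) mixed with SPA beads in 384-well plates at 40 µL total volume, read by scintillation counting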
T1 construct: expressed in transfected cells
T1 sequence (P30988 25-474): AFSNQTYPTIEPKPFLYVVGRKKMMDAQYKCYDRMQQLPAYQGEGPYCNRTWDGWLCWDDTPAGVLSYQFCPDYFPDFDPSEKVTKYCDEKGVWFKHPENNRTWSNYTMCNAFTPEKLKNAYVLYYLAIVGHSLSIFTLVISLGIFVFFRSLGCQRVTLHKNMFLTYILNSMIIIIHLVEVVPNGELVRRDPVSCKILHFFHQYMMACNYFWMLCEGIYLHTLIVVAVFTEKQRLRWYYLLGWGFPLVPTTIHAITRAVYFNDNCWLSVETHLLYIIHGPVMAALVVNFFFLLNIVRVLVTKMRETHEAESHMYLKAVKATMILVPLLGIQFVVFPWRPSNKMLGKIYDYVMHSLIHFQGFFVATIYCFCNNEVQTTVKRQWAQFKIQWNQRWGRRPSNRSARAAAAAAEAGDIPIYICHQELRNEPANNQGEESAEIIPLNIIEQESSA
T1 sequence (O60896 24-148 partner): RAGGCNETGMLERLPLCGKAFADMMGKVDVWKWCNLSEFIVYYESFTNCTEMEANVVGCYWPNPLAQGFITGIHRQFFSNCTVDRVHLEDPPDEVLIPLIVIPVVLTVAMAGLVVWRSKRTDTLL

[2] = ASSAY (IV) determination of solubility; type: physicochemical
Summary of the method: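 Samples of polypeptide, prepared from a water stock at […] and diluted 1:1 into 100 mM buffers spanning pH 3.0 to 8.0, stood 18 hours at room temperature. Polypeptide concentration was then determined by UPLC following centrifugation.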

[3] = biological target: T2, human amylin 3(a) receptor (human calcitonin receptor + RAMP-3) in BHK570 cells (Homo sapiens, UniProt O60896+P30988); experiment: ASSAY (II)a functional assay, human amylin receptor (CRE luciferase); type: cell-based
T2 construct: expressed in transfected cells
Summary of the method: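 Read-out: CRE-driven luciferase luminescence, single photon counting, after 30 min at room temperature with LucLite. BHK cells expressed calcitonin receptor alone or with RAMP-3 (amylin 3(a)). Cells were stimulated 3 h at 37° C in DMEM, 10% FBS, 10 mM Hepes, pH 7.4.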

[4] = Table 5, selectivity, hCTR bind IC50 / hAmylin-R bind IC50
[5] = Table 5a, selectivity, hCTR bind IC50 / hAmylin-R bind IC50
[6] = Table 7, human binding selectivity, included for comparison
[7] = Table 7a (preferred compounds), human binding selectivity, included for comparison
[8] = ratio of human calcitonin receptor binding IC50 to human amylin receptor binding IC50
[9] = bistrispropane buffer, pH 6.5, read-out: Solubility pH 6.5 Concentration
[10] = bistrispropane buffer, pH 7.5, read-out: Solubility pH 7.5 Concentration
[11] = bistrispropane buffer, pH 6.0, read-out: Solubility pH 6.0 Concentration
[12] = bistrispropane buffer, pH 7.0, read-out: Solubility pH 7.0 Concentration
[13] = bistrispropane buffer, pH 8.0, read-out: Solubility pH 8.0 Concentration
[14] = glycylglycine buffer, pH 3.0, read-out: Solubility pH 3.0 Concentration
[15] = glycylglycine buffer, pH 4.0, read-out: Solubility pH 4.0 Concentration
[16] = glycylglycine buffer, pH 5.0, read-out: Solubility pH 5.0 Concentration
[17] = hCTR funct. EC50 divided by hAmylin-R funct. EC50
[18] = hCTR funct. EC50 over hAmylin-R funct. EC50
[19] = human functional selectivity: hCTR funct. EC50 / hAmylin-R funct. EC50
[20] = Table 5b, selectivity, hCTR bind IC50 / hAmylin-R bind IC50

CC[C@H](C)[C@H](NC(=O)[C@H](C)NC(=O)CNC(=O)[C@H](Cc1ccccc1)NC(=O)[C@H](CC(N)=O)NC(=O)[C@@H]1CCCN1C(=O)[C@H](CO)NC(=O)[C@H](CO)NC(=O)[C@H](Cc1c[nH]cn1)NC(=O)[C@H](CCCNC(=N)N)NC(=O)[C@H](CC(C)C)NC(=O)[C@H](Cc1ccccc1)NC(=O)[C@H](CC(N)=O)NC(=O)[C@H](C)NC(=O)[C@H](CC(C)C)NC(=O)[C@H](CCCNC(=N)N)NC(=O)[C@H](CCC(N)=O)NC(=O)[C@@H](NC(=O)[C@H](C)NC(=O)[C@@H]1CSSC[C@H](NC(=O)[C@H](CCCCN)NC(=O)CC[C@H](NC(=O)CCCCCCCCCCCCCCCCCCC(=O)O)C(=O)O)C(=O)N[C@@H](CC(N)=O)C(=O)N[C@@H]([C@@H](C)O)C(=O)N[C@@H](C)C(=O)N[C@@H]([C@@H](C)O)C(=O)N1)[C@@H](C)O)C(=O)N1CCC[C@H]1C(=O)N[C@@H](CO)C(=O)N[C@@H](CO)C(=O)N[C@H](C(=O)N[C@@H](CC(N)=O)C(=O)N[C@H](C(=O)NCC(=O)N1CCC[C@H]1C(=O)N[C@@H](CCC(=O)O)C(=O)N[C@H](C(=O)N[C@@H](Cc1ccc(O)cc1)C(N)=O)[C@@H](C)O)C(C)C)[C@@H](C)O [Example 29] ({C20 diacid-γGlu}-KCNTATCATQRLANFLRHSSPNFGAIPSSTNVGPETY-NH2; disulfide 2-7)
Ratio hCT/hAmylin binding [1, 4]: 13.9 | Ratio hCT/hAmylin binding [1, 5]: 13.9 | Ratio hCT/hAmylin binding [1, 6]: 13.9 | Ratio hCT/hAmylin binding [1, 7]: 13.9 | Ratio hCT/hAmylin binding [1, 8]: 13.9 | solubility at 18 h [2, 9]: ≥ 200 µM | solubility at 18 h [2, 10]: ≥ 200 µM | solubility at 18 h [2, 11]: ≥ 200 µM | solubility at 18 h [2, 12]: ≥ 200 µM | solubility at 18 h [2, 13]: ≥ 200 µM | solubility at 18 h [2, 14]: ≥ 200 µM | solubility at 18 h [2, 15]: ≥ 200 µM | solubility at 18 h [2, 16]: ≥ 200 µM | Ratio hCT/hAmylin funct. [3, 17]: 8.7 | Ratio hCT/hAmylin funct. [3, 18]: 8.7 | Ratio hCT/hAmylin funct. [3, 19]: 8.7

CC[C@H](C)[C@H](NC(=O)[C@H](C)NC(=O)CNC(=O)[C@H](Cc1ccccc1)NC(=O)[C@H](CC(N)=O)NC(=O)[C@@H]1CCCN1C(=O)[C@H](CO)NC(=O)[C@H](CO)NC(=O)[C@H](Cc1c[nH]cn1)NC(=O)[C@H](CCCNC(=N)N)NC(=O)[C@H](CC(C)C)NC(=O)[C@H](Cc1ccccc1)NC(=O)[C@H](CCC(=O)O)NC(=O)[C@H](C)NC(=O)[C@H](CC(C)C)NC(=O)[C@H](CCCNC(=N)N)NC(=O)[C@H](CCC(N)=O)NC(=O)[C@@H](NC(=O)[C@H](C)NC(=O)[C@@H]1CSSC[C@H](NC(=O)[C@H](CCCCN)NC(=O)CC[C@H](NC(=O)CCCCCCCCCCCCCCCCCCC(=O)O)C(=O)O)C(=O)N[C@@H](CC(N)=O)C(=O)N[C@@H]([C@@H](C)O)C(=O)N[C@@H](C)C(=O)N[C@@H]([C@@H](C)O)C(=O)N1)[C@@H](C)O)C(=O)N1CCC[C@H]1C(=O)N[C@@H](CO)C(=O)N[C@@H](CO)C(=O)N[C@H](C(=O)N1CCC[C@H]1C(=O)N[C@H](C(=O)NCC(=O)N[C@@H](CO)C(=O)N[C@@H](CC(N)=O)C(=O)N[C@H](C(=O)N[C@@H](Cc1ccc(O)cc1)C(N)=O)[C@@H](C)O)C(C)C)[C@@H](C)O [Example 31] ({C20 diacid-γGlu}-KCNTATCATQRLAEFLRHSSPNFGAIPSSTPVGSNTY-NH2; disulfide 2-7 (inferred))
Ratio hCT/hAmylin binding [1, 4]: 16.0 | Ratio hCT/hAmylin binding [1, 5]: 16.0 | Ratio hCT/hAmylin binding [1, 20]: 16.0 | Ratio hCT/hAmylin binding [1, 6]: 16.0 | Ratio hCT/hAmylin binding [1, 7]: 16.0 | Ratio hCT/hAmylin binding [1, 8]: 16.0 | solubility at 18 h [2, 9]: ≥ 200 µM | solubility at 18 h [2, 10]: ≥ 200 µM | solubility at 18 h [2, 11]: ≥ 200 µM | solubility at 18 h [2, 12]: ≥ 200 µM | solubility at 18 h [2, 13]: ≥ 200 µM | solubility at 18 h [2, 14]: ≥ 200 µM | solubility at 18 h [2, 15]: ≥ 200 µM | solubility at 18 h [2, 16]: ≥ 200 µM | Ratio hCT/hAmylin funct. [3, 17]: 6.4 | Ratio hCT/hAmylin funct. [3, 18]: 6.4 | Ratio hCT/hAmylin funct. [3, 19]: 6.4

CC[C@H](C)[C@H](NC(=O)[C@H](C)NC(=O)CNC(=O)[C@H](Cc1ccccc1)NC(=O)[C@H](CC(N)=O)NC(=O)[C@@H]1CCCN1C(=O)[C@H](CO)NC(=O)[C@H](CO)NC(=O)[C@H](Cc1c[nH]cn1)NC(=O)[C@H](CCCNC(=N)N)NC(=O)[C@H](CC(C)C)NC(=O)[C@H](Cc1ccccc1)NC(=O)[C@H](CCC(=O)O)NC(=O)[C@H](C)NC(=O)[C@H](CC(C)C)NC(=O)[C@H](CCCNC(=N)N)NC(=O)[C@H](CCC(N)=O)NC(=O)[C@@H](NC(=O)[C@H](C)NC(=O)[C@@H]1CSSC[C@H](NC(=O)[C@H](CCCCN)NC(=O)CC[C@H](NC(=O)CCCCCCCCCCCCCCCCCCC(=O)O)C(=O)O)C(=O)N[C@@H](CC(N)=O)C(=O)N[C@@H]([C@@H](C)O)C(=O)N[C@@H](C)C(=O)N[C@@H]([C@@H](C)O)C(=O)N1)[C@@H](C)O)C(=O)N1CCC[C@H]1C(=O)N[C@@H](CO)C(=O)N[C@@H](CO)C(=O)N[C@H](C(=O)N[C@@H](CC(N)=O)C(=O)N[C@H](C(=O)NCC(=O)N[C@@H](CCCCN)C(=O)N[C@@H](CC(N)=O)C(=O)N[C@H](C(=O)N[C@@H](Cc1ccc(O)cc1)C(N)=O)[C@@H](C)O)C(C)C)[C@@H](C)O [Example 36] ({C20 diacid-γGlu}-KCNTATCATQRLAEFLRHSSPNFGAIPSSTNVGKNTY-NH2; disulfide 2-7 (inferred))
Ratio hCT/hAmylin binding [1, 4]: 15.7 | Ratio hCT/hAmylin binding [1, 5]: 15.7 | Ratio hCT/hAmylin binding [1, 20]: 15.7 | Ratio hCT/hAmylin binding [1, 6]: 15.7 | Ratio hCT/hAmylin binding [1, 7]: 15.7 | Ratio hCT/hAmylin binding [1, 8]: 15.7 | solubility at 18 h [2, 9]: ≥ 200 µM | solubility at 18 h [2, 10]: ≥ 200 µM | solubility at 18 h [2, 11]: ≥ 200 µM | solubility at 18 h [2, 12]: ≥ 200 µM | solubility at 18 h [2, 13]: ≥ 200 µM | solubility at 18 h [2, 14]: ≥ 200 µM | solubility at 18 h [2, 15]: ≥ 200 µM | solubility at 18 h [2, 16]: ≥ 200 µM | Ratio hCT/hAmylin funct. [3, 17]: 6.8 | Ratio hCT/hAmylin funct. [3, 18]: 6.8 | Ratio hCT/hAmylin funct. [3, 19]: 6.8

CC[C@H](C)[C@H](NC(=O)[C@H](C)NC(=O)CNC(=O)[C@H](Cc1ccccc1)NC(=O)[C@H](CC(N)=O)NC(=O)[C@@H]1CCCN1C(=O)[C@H](CO)NC(=O)[C@H](CO)NC(=O)[C@H](Cc1c[nH]cn1)NC(=O)[C@H](CCCNC(=N)N)NC(=O)[C@H](CC(C)C)NC(=O)[C@H](Cc1ccccc1)NC(=O)[C@H](CC(N)=O)NC(=O)[C@H](C)NC(=O)[C@H](CC(C)C)NC(=O)[C@H](CCCNC(=N)N)NC(=O)[C@H](CCC(N)=O)NC(=O)[C@@H](NC(=O)[C@H](C)NC(=O)[C@@H]1CSSC[C@H](NC(=O)[C@H](CCCNC(=N)N)NC(=O)CNC(=O)CC[C@H](NC(=O)CCCCCCCCCCCCCCCCCCC(=O)O)C(=O)O)C(=O)N[C@@H](CC(N)=O)C(=O)N[C@@H]([C@@H](C)O)C(=O)N[C@@H](C)C(=O)N[C@@H]([C@@H](C)O)C(=O)N1)[C@@H](C)O)C(=O)N1CCC[C@H]1C(=O)N[C@@H](CO)C(=O)N[C@@H](CO)C(=O)N[C@H](C(=O)N[C@@H](CC(N)=O)C(=O)N[C@H](C(=O)NCC(=O)N[C@@H](CO)C(=O)N[C@@H](CC(N)=O)C(=O)N[C@H](C(=O)N[C@@H](Cc1ccc(O)cc1)C(N)=O)[C@@H](C)O)C(C)C)[C@@H](C)O [Example 46] ({C20 diacid-γGlu}-GRCNTATCATQRLANFLRHSSPNFGAIPSSTNVGSNTY-NH2; disulfide 3-8 (inferred))
Ratio hCT/hAmylin binding [1, 4]: 48.9 | Ratio hCT/hAmylin binding [1, 5]: 48.9 | Ratio hCT/hAmylin binding [1, 20]: 48.9 | Ratio hCT/hAmylin binding ([1]; Table 5c, selectivity, hCTR bind IC50 / hAmylin-R bind IC50): 48.9 | Ratio hCT/hAmylin binding [1, 6]: 48.9 | Ratio hCT/hAmylin binding [1, 7]: 48.9 | Ratio hCT/hAmylin binding [1, 8]: 48.9 | solubility at 18 h [2, 9]: ≥ 200 µM | solubility at 18 h [2, 10]: 106 µM (≈ 473 µg/mL) | solubility at 18 h [2, 11]: ≥ 200 µM | solubility at 18 h [2, 12]: 186 µM (≈ 831 µg/mL) | solubility at 18 h [2, 13]: 145 µM (≈ 648 µg/mL) | solubility at 18 h [2, 14]: ≥ 200 µM | solubility at 18 h [2, 15]: ≥ 200 µM | solubility at 18 h [2, 16]: ≥ 200 µM | Ratio hCT/hAmylin funct. [3, 17]: 10.2 | Ratio hCT/hAmylin funct. [3, 18]: 10.2 | Ratio hCT/hAmylin funct. [3, 19]: 10.2
